The results in this text go back to ChEMBL document CHEMBL4421728, “Bach1 Inhibitors in Combination with Nrf2 Activators and Pharmaceutical Compositions Thereof” (2017).

Structures are written as SMILES.

The target of assay [1] is T1, Transcription regulator protein BACH1 (Homo sapiens) (UniProt O14867).
T1 sequence (whole entry): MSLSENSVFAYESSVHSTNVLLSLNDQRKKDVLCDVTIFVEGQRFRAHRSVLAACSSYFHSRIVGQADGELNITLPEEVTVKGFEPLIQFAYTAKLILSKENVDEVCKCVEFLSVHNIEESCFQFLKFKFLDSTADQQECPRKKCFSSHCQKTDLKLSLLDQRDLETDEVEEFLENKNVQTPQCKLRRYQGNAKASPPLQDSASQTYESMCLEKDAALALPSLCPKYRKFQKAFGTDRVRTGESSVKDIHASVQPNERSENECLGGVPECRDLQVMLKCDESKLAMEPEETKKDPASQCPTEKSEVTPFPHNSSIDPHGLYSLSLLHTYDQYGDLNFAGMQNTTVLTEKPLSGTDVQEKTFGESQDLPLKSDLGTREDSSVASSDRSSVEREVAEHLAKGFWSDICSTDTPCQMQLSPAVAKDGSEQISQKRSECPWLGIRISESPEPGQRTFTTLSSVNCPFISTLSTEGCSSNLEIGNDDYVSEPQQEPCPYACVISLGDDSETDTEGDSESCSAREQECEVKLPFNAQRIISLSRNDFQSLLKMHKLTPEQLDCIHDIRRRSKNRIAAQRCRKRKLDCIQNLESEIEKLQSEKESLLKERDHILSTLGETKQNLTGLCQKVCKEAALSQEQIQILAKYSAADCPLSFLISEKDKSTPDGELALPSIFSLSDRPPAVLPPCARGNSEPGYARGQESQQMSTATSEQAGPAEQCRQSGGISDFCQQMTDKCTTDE
In words: Inhibition of Bach1 in normal human lung fibroblasts assessed as induction of HMOX protein expression at 0.039 uM incubated for 16 to 18 hrs in presence of 0.0024 uM Nrf2 activator Bardoxolone methyl by immunostaining relative to control.

Assay [2] deals with T1, Transcription regulator protein BACH1 (Homo sapiens). Description: Inhibition of Bach1 in normal human lung fibroblasts assessed as induction of HMOX protein expression at 0.156 uM incubated for 16 to 18 hrs in presence of 0.0024 uM Nrf2 activator Bardoxolone methyl by immunostaining relative to control.
For assay [3] the target is unchanged. Description: Inhibition of Bach1 in normal human lung fibroblasts assessed as induction of HMOX protein expression at 0.625 uM incubated for 16 to 18 hrs in presence of 0.0024 uM Nrf2 activator Bardoxolone methyl by immunostaining relative to control.
The target is the same in assay [4]. In words: Inhibition of Bach1 in normal human lung fibroblasts assessed as induction of HMOX protein expression at 0.156 uM incubated for 16 to 18 hrs in presence of 0.0048 uM Nrf2 activator Bardoxolone methyl by immunostaining relative to control.
Assay [5] has the same target. Description: Inhibition of Bach1 in normal human lung fibroblasts assessed as induction of HMOX protein expression at 2.5 uM incubated for 16 to 18 hrs in presence of 0.0048 uM Nrf2 activator Bardoxolone methyl by immunostaining relative to control.
Assay [6] has the same target. Description: Inhibition of Bach1 in normal human lung fibroblasts assessed as induction of HMOX protein expression at 0.312 uM incubated for 16 to 18 hrs in presence of 0.0097 uM Nrf2 activator Bardoxolone methyl by immunostaining relative to control.
Assay [7] has the same target. Description: Inhibition of Bach1 in normal human lung fibroblasts assessed as induction of HMOX protein expression at 1.25 uM incubated for 16 to 18 hrs in presence of 0.0097 uM Nrf2 activator Bardoxolone methyl by immunostaining relative to control.
Assay [8] shares this target. In words: Inhibition of Bach1 in normal human lung fibroblasts assessed as induction of HMOX protein expression at 0.312 uM incubated for 16 to 18 hrs in presence of 0.019 uM Nrf2 activator Bardoxolone methyl by immunostaining relative to control.
For assay [9] the target is unchanged. In words: Inhibition of Bach1 in normal human lung fibroblasts assessed as induction of HMOX protein expression at 0.019 uM incubated for 16 to 18 hrs in presence of 0.039 uM Nrf2 activator Bardoxolone methyl by immunostaining relative to control.
The target is the same in assay [10]. In words: Inhibition of Bach1 in normal human lung fibroblasts assessed as induction of HMOX protein expression at 0.019 uM incubated for 16 to 18 hrs in presence of 0.078 uM Nrf2 activator Bardoxolone methyl by immunostaining relative to control.
Assay [11] shares this target. Description: Inhibition of Bach1 in normal human lung fibroblasts assessed as induction of HMOX protein expression at 0.156 uM incubated for 16 to 18 hrs in presence of 0.156 uM Nrf2 activator Bardoxolone methyl by immunostaining relative to control.
For assay [12] the target is unchanged. In words: Inhibition of Bach1 in normal human lung fibroblasts assessed as induction of HMOX protein expression at 2.5 uM incubated for 16 to 18 hrs in presence of 0.312 uM Nrf2 activator Bardoxolone methyl by immunostaining relative to control.

`CNC(=O)c1ccc2c(c1)nc(Nc1nc3ccc(OC(F)(F)F)cc3s1)n2C`: the fold change (FC) in assay [1] stood at 2.32; in assay [2], 7.32; in assay [3] it was 15.7; in assay [4], 8.04; in [5] it was 19.5; in [6], 16.4. Also, the fold change (FC) in assay [7] is 16.5; in assay [8] it was 17.7; in assay [9], 15.9; in [10], 22.3; in assay [11], 18.3; in [12], 10.
